Marks after values point to notes of the source that are not given here.

The subject of data set [1] is P. berghei. Briefly: 4-day Peters test against P. berghei in vivo. The following applies: 4 day.
Data set [2] in a line: differential scanning calorimetry (DSC), thermal stability. Format: physicochemical. The settings on record: thermal decomposition. (DSC measures the heat that a sample takes up or gives off during a temperature scan.)
Data set [3] concerns P. berghei. Briefly: 1-day Peters test against P. berghei in vivo. The settings on record: for oral activity based on po ED50/ED90 values: ranking among trioxolanes and controls.
Data set [4] relates to 21-day-old schistosomules of Schistosoma mansoni. Briefly: effect on 21-day-old schistosomules in mice. Format: in vivo. The following applies: single 200 mg/kg per os; for FWR (%): female worm reduction rate; for Mean female worm burden: mean ± standard deviation; for TWR (%): total worm reduction rate. The protocol:
[…] Each group was treated per os with OZ compounds at a single dose of 200 mg/kg. Untreated mice served as the control. All groups were killed 4 weeks after treatment and the liver and intestine were removed and separated. The liver and intestine were compressed and alive male and female worms could be seen and counted. The effect of the compounds was evaluated by mean total and female worm burden.

Data set [5] relates to adult schistosomes (49-day-old) of Schistosoma mansoni. Briefly: effect on adult schistosomes (49-day-old) in mice. Format: in vivo. The settings on record: single 400 mg/kg per os; for TWR (%): total worm reduction rate; for Mean total worm burden: x ± SD. The protocol:
Mice were infected with 100 Schistosoma mansoni cercariae […]. Each group was treated per os with OZ compounds at a single dose of 400 mg/kg. Untreated mice served as the control. All groups were killed 4 weeks after treatment and the liver and intestine were removed and separated. The liver and intestine were compressed and alive male and female worms could be seen and counted.

The subject of data set [6] is ANKA strain of P. Berghei. Briefly: single dose STI in vivo screen in infected Moro SPF mice. The following applies: for antimalarial activity, overall assessment: overall judgement of in vitro and in vivo data of Table 2; for Activity (%) po / Activity (%) sc: percent reduction in parasitemia day 3 post-infection; for in vivo activity: 10 mg/kg po/sc data of Table 2. The protocol: In the single dose STI in vivo screen, Moro SPF mice infected with the ANKA strain of P. Berghei (groups of three mice) were treated on day one post-infection with trioxolanes dissolved or suspended in 3% ethanol and 7% Tween 80. […] Antimalarial activity was measured by percent redution in parasitemia on day three post-infection and survival times compared to an untreated control group. Survival to day 30 post-infection is considered to be a cure.

The test system of data set [7] is chloroquine-resistant K1 strain of P. falciparum. Briefly: in vitro screen against chloroquine-resistant K1 strain of P. falciparum. Format: cell-based. The settings on record: in vitro; for in vitro potency: strains not distinguished.
The test system of data set [8] is chloroquine-sensitive NF54 strain of P. falciparum. Briefly: in vitro screen against chloroquine-sensitive NF54 strain of P. falciparum. Format: cell-based. The following applies: in vitro, NF54 strain.

Regarding `O=C1CC2CC3(CC2C1)OOC1(O3)C2CC3CC(C2)CC1C3` (stereo not drawn) [OZ12, Adamantane-2-spiro-3′-1′,2′,4′-trioxolane-5′-spiro-3″-7″-oxo-cis-bicyclo[3.3.0]octane], in data set [1], the “P. berghei (4 day) ED50 po” value stood at 6.8 mg/kg, the “P. berghei (4 day) ED90 po” value turned out to be 10.5 mg/kg, the “P. berghei (4 day) ED50 sc” value is given as 0.8 mg/kg and the “P. berghei (4 day) ED90 sc” value is given as 1.4 mg/kg. In addition, in data set [2], the “Tm dec. (° C.)” value is 149.8 °C.
As for `CON=C1CCC2(CC1)OOC1(O2)C2CC3CC(C2)CC1C3` (stereo not drawn) [OZ15, Adamantane-2-spiro-3′-8′-methoxyimino-1′,2′,4′-trioxaspiro[4.5]decane], in data set [3], the “P. berghei (1 day) ED50 po” value is given as 3.1 mg/kg, the “P. berghei (1 day) ED90 po” value turned out to be 5.9 mg/kg, the “P. berghei (1 day) ED50 sc” value was found to be 0.7 mg/kg and the “P. berghei (1 day) ED90 sc” value was found to be 2.6 mg/kg. In data set [1], the “P. berghei (4 day) ED50 po” value was determined as 2.9 mg/kg, the “P. berghei (4 day) ED90 po” value came to 6.3 mg/kg, the “P. berghei (4 day) ED50 sc” value was 0.7 mg/kg and the “P. berghei (4 day) ED90 sc” value is given as 1.1 mg/kg. In addition, in data set [4], the “FWR (%)” value came out at 70%, the “Mean female worm burden” value is reported as 3.8 ± 2.4^b and the “TWR (%)” value is on record as 63%. Moreover, in data set [5], the “Percentage of dead worm” value is 10 (21/210), the Total dead worm was 21, the “TWR (%)” value was found to be 0% and the “Mean total worm burden” value is 37.8 ± 20.6. The “Tm dec. (° C.)” value in data set [2] is 157.8 °C.
For the compound `CC(C)(C)C1CCC2(CC1)OOC1(O2)C2CC3CC(C2)CC1C3` (stereo not drawn) [OZ18, Adamantane-2-spiro-3′-8′-t-butyl-1′,2′,4′-trioxaspiro[4.5]decane], the “antimalarial activity, overall assessment” value (shortened to “antimalarial activity”) in data set [6] was “completely inactive”. The “Activity (%) po” value in data set [6] (single 10 mg/kg po) is 0/0%. Further, the “Activity (%) sc” value in data set [6] (single 10 mg/kg sc) was 0/0%. In addition, in data set [4], the “FWR (%)” value is listed as 9%, the “Mean female worm burden” value was 11.4 ± 2.7^a and the “TWR (%)” value was found to be 12%. In addition, in data set [5], the “Percentage of dead worm” value was 0, the Total dead worm turned out to be 0, the “TWR (%)” value is 0.6% and the “Mean total worm burden” value is 35.6 ± 7.2^a. Moreover, the “Tm dec. (° C.)” value in data set [2] stood at 166.5 °C.
Take `c1ccc(CON=C2CCC3(CC2)OOC2(O3)C3CC4CC(C3)CC2C4)cc1` (stereo not drawn) [OZ19, Adamantane-2-spiro-3′-8′-benzyloxyimino-1′,2′,4′-trioxaspiro[4.5]decane]: the “in vitro potency, fold less potent than the analog” value in data set [7] was about 2 fold. Further, in data set [3], the “P. berghei (1 day) ED50 po” value worked out at 3.4 mg/kg, the “P. berghei (1 day) ED90 po” value is on record as 9.4 mg/kg, the “P. berghei (1 day) ED50 sc” value is 1.8 mg/kg and the “P. berghei (1 day) ED90 sc” value is 3.6 mg/kg. In addition, in data set [1], the “P. berghei (4 day) ED50 po” value is listed as <10/>10 mg/kg and the “P. berghei (4 day) ED90 po” value is reported as <10/>10 mg/kg. In data set [2], the “Tm dec. (° C.)” value is 157.8 °C.
On to `O=C(c1ccccc1)N1CCC2(CC1)OOC1(O2)C2CC3CC(C2)CC1C3` (stereo not drawn) [OZ24, Adamantane-2-spiro-3′-8′-benzoyl-1′,2′,4′-trioxa-8′-azaspiro[4.5]decane], for which, in data set [3], the “P. berghei (1 day) ED50 po” value is recorded as 3.9 mg/kg, the “P. berghei (1 day) ED90 po” value was 9.0 mg/kg and the “P. berghei (1 day) ED90 sc” value was “NA/2.1 mg/kg”. Also, in data set [1], the “P. berghei (4 day) ED50 po” value was <10/>10 mg/kg and the “P. berghei (4 day) ED90 po” value is reported as <10/>10 mg/kg. For the same compound, the “Tm dec. (° C.)” value in data set [2] worked out at 154.9 °C.
`CCCC1CCC2(CC1)OOC1(O2)C2CC3CC(C2)CC1C3` (stereo not drawn) [OZ25, Adamantane-2-spiro-3′-8′-propyl-1′,2′,4′-trioxaspiro[4.5]decane]: in data set [6], the “antimalarial activity” value is given as “excellent activity”. In addition, in data set [3], the “P. berghei (1 day) ED50 po” value stood at 1.9 mg/kg, the “P. berghei (1 day) ED90 po” value was found to be 3.1 mg/kg, the “P. berghei (1 day) ED50 sc” value stood at 1.7 mg/kg and the “P. berghei (1 day) ED90 sc” value worked out at 3.0 mg/kg. Further, the “oral activity based on po ED50/ED90 values” in data set [3] is listed as “only slightly less orally active than OZ11”. In data set [1], the “P. berghei (4 day) ED50 po” value is recorded as 1.2 mg/kg, the “P. berghei (4 day) ED90 po” value is reported as 3.7 mg/kg, the “P. berghei (4 day) ED50 sc” value was 2.2 mg/kg and the “P. berghei (4 day) ED90 sc” value is listed as 3.7 mg/kg. Further, the “Tm dec. (° C.)” value in data set [2] turned out to be 167.7 °C.
As for `c1ccc2c(c1)COC1(CCC3(CC1)OOC1(O3)C3CC4CC(C3)CC1C4)OC2` (stereo not drawn) [OZ31, Adamantane-2-spiro-3′-11′,12′-benzo-1′,2′,4′, 9′,14′-pentaoxadispiro[4.2.6.2]hexadecane], the “Activity (%) po” value in data set [6] (single 10 mg/kg po) was 99.95/99.95%. Also, the “Activity (%) sc” value in data set [6] (single 10 mg/kg sc) is 99.95/99.95%. Also, in data set [3], the “P. berghei (1 day) ED50 po” value amounted to 1.6 mg/kg, the “P. berghei (1 day) ED90 po” value is listed as 3.9 mg/kg, the “P. berghei (1 day) ED50 sc” value worked out at 1.1 mg/kg and the “P. berghei (1 day) ED90 sc” value is 2.4 mg/kg. Moreover, the “Tm dec. (° C.)” value in data set [2] was 161.1 °C.
In the case of `Fc1ccc(C2CCC3(CC2)OOC2(O3)C3CC4CC(C3)CC2C4)cc1` (stereo not drawn) [OZ41, Adamantane-2-spiro-3′-8′-(4′-fluorophenyl)-1′,2′,4′-trioxaspiro[4.5]decane], in data set [3], the “P. berghei (1 day) ED50 po” value is on record as 2.8 mg/kg and the “P. berghei (1 day) ED90 po” value is on record as 5.1 mg/kg. In addition, in data set [2], the “Tm dec. (° C.)” value is 159.0 °C.
Consider `Clc1ccc(C2(c3ccc(Cl)cc3)OOC3(O2)C2CC4CC(C2)CC3C4)cc1` (stereo not drawn) [OZ43, Adamantane-2-spiro-3′-5′, 5′-bis(4′-chlorophenyl)-1′,2′,4′-trioxolane], for which, in data set [3], the “P. berghei (1 day) ED50 po” value was determined as 2.1 mg/kg, the “P. berghei (1 day) ED90 po” value is 4.0 mg/kg and the “oral activity based on po ED50/ED90 values” is given as “only slightly less orally active than OZ11”. In data set [5], the “Percentage of dead worm” value stood at 0, the Total dead worm is 0, the “TWR (%)” value is given as 1.1% and the “Mean total worm burden” value is recorded as 35.4 ± 15.8^a. Moreover, the “Tm dec. (° C.)” value in data set [2] stood at 155.8 °C.
With `CC(=O)N1CCC2(CC1)OOC1(O2)C2CC3CC(C2)CC1C3` (stereo not drawn) [OZ49, Adamantane-2-spiro-3′-8′-acetyl-1′,2′,4′-trioxa-8′-azaspiro[4.5]decane], the “in vitro potency, fold less potent than the analog” value in data set [7] turned out to be 2 fold. For the same compound, the “Tm dec. (° C.)” value in data set [2] worked out at 155.7 °C.
With `CCS(=O)(=O)N1CCC2(CC1)OOC1(O2)C2CC3CC(C2)CC1C3` (stereo not drawn) [OZ79, Adamantane-2-spiro-3′-8′-ethanesulfonyl-1′,2′,4′-trioxa-8′-azaspiro[4.5]decane], the “in vitro potency” value in data set [7] is recorded as “very potent”. Also, the “in vivo activity” value in data set [6] was “good”. Further, the “Tm dec. (° C.)” value in data set [2] was found to be 153.6 °C.
Take `CC(=O)OCC(=O)N1CCC2(CC1)OOC1(O2)C2CC3CC(C2)CC1C3` (stereo not drawn) [OZ82, Adamantane-2-spiro-3′-8′-acetoxyacetyl-1′,2′,4′-trioxa-8′-azaspiro[4.5]decane]: in data set [8], the “IC50 (ng/ml) NF54” value was “/1.3 ng/ml”. For the same compound, the “antimalarial activity” value in data set [6] is “very active”. For the same compound, the “Tm dec. (° C.)” value in data set [2] turned out to be 153.7 °C.
On the same counts, the results for `O=C(CO)N1CCC2(CC1)OOC1(O2)C2CC3CC(C2)CC1C3` (stereo not drawn) [OZ83, Adamantane-2-spiro-3′-8′-hydroxyacetyl-1′,2′,4′-trioxa-8′-azaspiro[4.5]decane] are “/1.0 ng/ml”, “very active” and 163.6 °C.
For the compound `O=S(=O)(c1ccc(F)cc1)N1CCC2(CC1)OOC1(O2)C2CC3CC(C2)CC1C3` (stereo not drawn) [OZ86, Adamantane-2-spiro-3′-8′-(4′-fluorobenzenesulfonyl)-1′,2′,4′-trioxa-8′-azaspiro[4.5]decane], the “IC50 (ng/ml) NF54” value in data set [8] is listed as “/2.3 ng/ml”. In data set [2], the “Tm dec. (° C.)” value was 153.0 °C.
Consider `O=C(CCl)N1CCC2(CC1)OOC1(O2)C2CC3CC(C2)CC1C3` (stereo not drawn) [OZ87, Adamantane-2-spiro-3′-8′-chloroacetyl-1′,2′,4′-trioxa-8′-azaspiro[4.5]decane], for which the “IC50 (ng/ml) NF54” value in data set [8] is recorded as “/4.5 ng/ml”. In data set [6], the “antimalarial activity” value is on record as “much less active”. Also, the “Tm dec. (° C.)” value in data set [2] is 149.7 °C.
As to `O=C(OCCC1CCC2(CC1)OOC1(O2)C2CC3CC(C2)CC1C3)c1ccc([N+](=O)[O-])cc1` (stereo not drawn) [OZ88, Adamantane-2-spiro-3′-8′-[2′-(4′-nitrobenzoyloxy)ethyl]-1′,2′,4′-trioxaspiro[4.5]decane], the “IC50 (ng/ml) NF54” value in data set [8] is reported as “/4.2 ng/ml”. In addition, in data set [2], the “Tm dec. (° C.)” value is 158.9 °C.
With “Adamantane-2-spiro-3′-1′,2′,4′-trioxaspiro[4.5]decan-8′-one pyridinioacetylhydrazone chloride [OZ55]”, in data set [7], the “in vitro potency” value is reported as “quite potent”. Besides, in data set [6], the “in vivo activity” value is “minimal”. Moreover, in data set [6] (single 10 mg/kg po), the “Activity (%) po” value is on record as 45% and the “Survival (days) po” value is reported as 6.0 days. In data set [6] (single 10 mg/kg sc), the “Activity (%) sc” value came out at 97% and the “Survival (days) sc” value stood at 7.3 days.

These data come from US6486199B1, “Spiro and dispiro 1,2,4-trioxolane antimalarials” (Medicines for Malaria Venture MMV International Centre …, priority 2001, dated 2002).
